This note sets out measurements from US8629273B2, “Diazinylpyrazolyl compounds” (Bayer Intellectual Property GmbH, priority 2009, dated 2014).

For series [1], the system named is larvae of the mustard beetle (Phaedon cochleariae). The series is described as follows: Phaedon test (PHAECO spray treatment). It is filed as in vivo. The note with it: after 7 days. As for the experimental part:
(§1) Solvents: 78.0 parts by weight of acetone • • 1.5 parts by weight of dimethyl formamide Emulsifier: 0.5 part by weight of alkylaryl polyglycol ether To produce a suitable preparation of active compound, 1 part by weight of active compound is mixed with the stated amounts of solvent and emulsifier, and the concentrate is diluted with emulsifier-containing water to the desired concentration. Discs of Chinese cabbage leaves (Brassica pekinensis) are sprayed with an active compound preparation of the desired concentration and, after drying, populated with larvae of the mustard beetle (Phaedon cochleariae). After 7 days, the activity in % is determined. 100% means that all beetle larvae have been killed; 0% means that none of the beetle larvae have been killed. The test was carried out and evaluated as described in Example B.4.

A short description of series [2]: logP by HPLC on reversed-phase columns (C 18), EU Guideline 79/831 Annex V.A8. The format is physicochemical. The note with it: ** LC-MS in the neutral range, pH 7.8, 0.001 molar aqueous ammonium bicarbonate and acetonitrile.
In series [3] the test system is greenhouse red spider mite (Tetranychus urticae). The series is described as follows: Tetranychus test, OP resistant (TETRUR spray treatment). It is filed as in vivo. Conditions: after 6 days. On the procedure: Solvents: 78.0 parts by weight of acetone • • 1.5 parts by weight of dimethyl formamide Emulsifier: 0.5 part by weight of alkylaryl polyglycol ether To produce a suitable preparation of active compound, 1 part by weight of active compound is mixed with the stated amounts of solvent and emulsifier, and the concentrate is diluted with emulsifier-containing water to the desired concentration. Discs of bean leaves (Phaseolus vulgaris) which are infested by all stages of the greenhouse red spider mite (Tetranychus urticae) are sprayed with an active compound preparation of the desired concentration. After 6 days, the activity in % is determined. 100% means that all spider mites have been killed; 0% means that none of the spider mites has been killed. The test was carried out and evaluated as described in Example B.7.

Series [4] deals with caterpillars of the army worm (Spodoptera frugiperda). As to the kind of experiment: Spodoptera frugiperda test (SPODFR spray treatment). The note with it: after 7 days. It is filed as in vivo. As for the experimental part:
as §1, with “maize” for “Chinese cabbage”, “(Zea mays)” for “(Brassica pekinensis)”, “caterpillars” for “larvae”, “army worm (Spodoptera frugiperda).” for “mustard beetle (Phaedon cochleariae).”, “caterpillars” for “beetle larvae”, “B.5.” for “B.4.”

The test system of another series is Boophilus microplus. As to the kind of experiment: Boophilus microplus test (BOOPMI injection). It is filed as in vivo. The note with it: 20 μg/animal, injected into the abdomen, after 7 days. On the procedure: Solvent: Dimethyl Sulphoxide To produce a suitable preparation of active compound, 10 mg of active compound are mixed with 0.5 ml of solvent, and the concentrate is diluted with water to the desired concentration. The active compound solution is injected into the abdomen (Boophilus microplus) and the animals are transferred into dishes and stored in a climatized room. The activity is monitored for deposition of fertile eggs. After 7 days, the activity in % is determined. 100% means that none of the ticks has laid fertile eggs.

For the next series, the system named is Lucilia cuprina larvae. As to the kind of experiment: Lucilia cuprina test (LUCICU). It is filed as in vivo. Conditions: 100 ppm, treated horse meat, after 2 days. On the procedure: Solvent: Dimethyl Sulphoxide To produce a suitable preparation of active compound, 10 mg of active compound are mixed with 0.5 ml of dimethyl sulphoxide, and the concentrate is diluted with water to the desired concentration. Containers containing horse meat treated with the active compound preparation of the desired concentration are populated with Lucilia cuprina larvae. After 2 days, the kill in % is determined. 100% means that all larvae have been killed; 0% means that none of the larvae have been killed.

The next series deals with Ctenocephalides felis. The series is described as follows: Ctenocephalides felis oral (CTECFE). The format is in vivo. Conditions: 100 ppm in citrated cattle blood, after 2 days. As for the experimental part: Solvent: 1 part by weight of dimethyl sulphoxide To produce a suitable preparation of active compound, 10 mg of active compound are mixed with 0.5 ml of dimethyl sulphoxide. One part of the concentrate is diluted with citrated cattle blood, and the desired concentration is prepared. 20 unfed adult fleas (Ctenocephalides felis) are placed into a chamber whose top and bottom ends are closed with gauze. A metal cylinder whose bottom end is closed with parafilm is placed onto the chamber. The cylinder contains the blood/active compound preparation, which can be taken up by the fleas through the parafilm membrane. After 2 days, the kill in % is determined. 100% means that all fleas have been killed; 0% means that none of the fleas have been killed.

The subject of a further series is adult Musca domestica. As to the kind of experiment: Musca domestica test (MUSCDO). The format is in vivo. Conditions: treated sponge. As for the experimental part:
Solvent: Dimethyl sulphoxide To prepare a suitable preparation of active compound, 10 mg of active component are mixed with 0.5 ml of dimethyl sulphoxide, and the concentrate is diluted with water to the desired concentration. Vessels containing a sponge which had been treated with the active compound preparation of the desired concentration are populated with adult Musca domestica. After the desired period of time, the kill in % is determined. 100% means that all flies have been killed; 0% means that none of the flies have been killed.

The test system of series [5] is Boophilus microplus strain Parkhurst (SP-resistant). As to the kind of experiment: Boophilus microplus test (DIP). The format is in vivo. Conditions: 100 ppm. On the procedure:
Test animals: adult fed females of the Boophilus microplus strain Parkhurst (SP-resistant)
Solvent: Dimethyl sulphoxide
10 mg of active compound are dissolved in 0.5 ml of dimethyl sulphoxide. To produce a suitable formulation, the active compound solution is diluted with water to the particular desired concentration. This active compound preparation is pipetted into tubes. 8-10 ticks are transferred into a further tube provided with holes. The tube is dipped into the active compound preparation, with all ticks being wetted completely. After the liquid has run off, the ticks are transferred to filter discs in plastic dishes and kept in a climatized room. After the desired period of time, the activity is checked for deposition of fertile eggs. Eggs whose fertility is not visible from the outside are kept in glass tubes in a climatized cupboard under the larvae have hatched. An activity of 100% means that no tick has laid fertile eggs.

As for `COc1cc(C=Nc2c(-c3cc(Cl)cc(C(F)(F)F)c3)c(C(F)(F)F)nn2-c2ncccn2)ccc1O` [Example 1-10], the “activity (beetle larvae killed)” value in series [1] (100 g/ha) was 100%. For the same molecule, in series [2], the logP is listed as 4.05**. Also, the “activity (spider mites killed)” value in series [3] (100 g/ha) was found to be 100%. In addition, the “activity (caterpillars killed)” value in series [4] (100 g/ha) came out at 100%.
`FC(F)(F)c1cc(Cl)cc(-c2c(C(F)(F)F)nn(-c3ncccn3)c2N=Cc2ccccc2)c1` [Example 1-12]: the “activity (no deposition of fertile eggs)” value in the series with Boophilus microplus is listed as 100%. The kill in the series on Lucilia cuprina larvae, in the series with Ctenocephalides felis and in the series with adult Musca domestica (20 ppm) was 100% in each case. Also, the “activity (beetle larvae killed)” value in [1] (4 g/ha) and in series [1] (100 g/ha) was 100% each time. Further, the logP in series [2] is 4.92**. The “activity (spider mites killed)” value in [3] (100 g/ha) is 100%. Further, the “activity (caterpillars killed)” value in [4] (20 g/ha) and in [4] (100 g/ha) was 100% each time.
For the molecule `COc1ccc(C=Nc2c(-c3cc(Cl)cc(C(F)(F)F)c3)c(C(F)(F)F)nn2-c2ncccn2)cc1` [Example 1-17], the “activity (no deposition of fertile eggs)” value in the series on Boophilus microplus came out at 100%. For the same molecule, the kill in the series with Lucilia cuprina larvae, in the series with Ctenocephalides felis and in the series on adult Musca domestica (20 ppm) was 100% each time. Further, in [1] (100 g/ha), the “activity (beetle larvae killed)” value stood at 100%. Further, in series [2], the logP is reported as 4.98**. Also, the “activity (spider mites killed)” value in series [3] (100 g/ha) was 100%. Also, in [4] (100 g/ha), the “activity (caterpillars killed)” value is given as 100%.
Take `COc1ccc(C=Nc2c(-c3cc(Cl)cc(C(F)(F)F)c3)c(C(F)(F)C(F)F)nn2-c2ncccn2)cc1` [Example 1-21]: in the series on Boophilus microplus, the “activity (no deposition of fertile eggs)” value worked out at 100%. The kill in the series on Lucilia cuprina larvae, in the series on Ctenocephalides felis and with adult Musca domestica (100 ppm) was 100% each time. The “activity (beetle larvae killed)” value in series [1] (100 g/ha) is 100%. Besides, the logP in [2] is reported as 3.69**. Also, in [3] (100 g/ha), the “activity (spider mites killed)” value was determined as 90%. Moreover, in series [4] (100 g/ha), the “activity (caterpillars killed)” value is recorded as 100%.
For the molecule `FC(F)C(F)(F)c1nn(-c2ncccn2)c(N=Cc2ccccc2)c1-c1cc(Cl)c2c(c1)OCO2` [Example 1-24], the “activity (no deposition of fertile eggs)” value (in the series with Boophilus microplus; in series [5]) was 100% in each case. The results for the kill with Lucilia cuprina larvae, in the series with Ctenocephalides felis and in the series with adult Musca domestica (100 ppm) were 100%, 100% and 80%, respectively. Besides, the “activity (beetle larvae killed)” value in series [1] (100 g/ha) was 100%. In addition, in series [2], the logP is 3.9**. Besides, in [4] (100 g/ha), the “activity (caterpillars killed)” value was 100%.
On to `FC(F)(F)c1nn(-c2ncccn2)c(N=Cc2ccc(Cl)cc2)c1-c1cc(Cl)c2c(c1)OCO2` [Example 1-25], for which the “activity (no deposition of fertile eggs)” value (with Boophilus microplus; in series [5]) was 100% in each case. Moreover, the kill in the series on Lucilia cuprina larvae, in the series with Ctenocephalides felis and in the series with adult Musca domestica (20 ppm) was 100% each time. Besides, the “activity (beetle larvae killed)” value in [1] (100 g/ha) is 100%. In series [2], the logP is 4.51**. The “activity (caterpillars killed)” value in [4] (100 g/ha) turned out to be 100%.
With `COc1cc(C=Nc2c(-c3cc(Cl)c4c(c3)OCO4)c(C(F)(F)F)nn2-c2ncccn2)cc(OC)c1OC` [Example 1-27], the “activity (no deposition of fertile eggs)” value (in the series on Boophilus microplus; in series [5]) was 100% each time. The kill in the series on Lucilia cuprina larvae is recorded as 100%; in the series with Ctenocephalides felis, 100%; in the series on adult Musca domestica (100 ppm), 80%. In series [1] (100 g/ha), the “activity (beetle larvae killed)” value is on record as 100%. The logP in [2] is 3.82**.
Regarding `CC(C)OC=Nc1c(-c2cc(Cl)cc(C(F)(F)F)c2)c(C(F)(F)C(F)(F)F)nn1-c1ncccn1` [Example 1-44], in series [1] (100 g/ha), the “activity (beetle larvae killed)” value was determined as 100%. Besides, in series [2], the logP is reported as 5.31**. Besides, the “activity (spider mites killed)” value in series [3] (100 g/ha) is reported as 100%. The “activity (caterpillars killed)” value in [4] (100 g/ha) is 100%.
For `COc1nccnc1-n1nc(C(F)(F)C(F)F)c(-c2cc(Cl)cc(C(F)(F)F)c2)c1N=Cc1ccccc1` [Example 2-11], the “activity (no deposition of fertile eggs)” value in the series with Boophilus microplus came to 100%; in series [5], 90%. The results for the kill in the series with Lucilia cuprina larvae, in the series with Ctenocephalides felis and in the series with adult Musca domestica (100 ppm) were 100%, 90% and 90%, respectively. Also, in [2], the logP is reported as 5.37**.
As to `COc1nccnc1-n1nc(C(F)(F)C(F)F)c(-c2cc(Cl)c3c(c2)OCO3)c1N=Cc1ccccc1` [Example 2-13], the “activity (no deposition of fertile eggs)” value (in the series on Boophilus microplus; in series [5]) was 100% in each case. The kill was determined as 100% in the series with Lucilia cuprina larvae, 100% with Ctenocephalides felis and 80% in the series on adult Musca domestica (100 ppm). In addition, the logP in series [2] is reported as 4.48**.
As for `COc1nccnc1-n1nc(C(F)(F)F)c(-c2cc(Cl)c3c(c2)OCO3)c1N=Cc1ccc(Cl)cc1` [Example 2-14], the “activity (no deposition of fertile eggs)” value (in the series on Boophilus microplus; in [5]) was 100% throughout. Also, the values for the kill with Lucilia cuprina larvae, in the series with Ctenocephalides felis and in the series with adult Musca domestica (100 ppm) were 100%, 100% and 90%, respectively. Besides, in series [2], the logP is on record as 5.1**.
As for `COc1nccnc1-n1nc(C(F)(F)C(F)F)c(-c2cc(Cl)cc(C(F)(F)F)c2)c1N=COC(C)C` [Example 2-20], the “activity (no deposition of fertile eggs)” value in the series with Boophilus microplus came to 100%. Further, the kill with Lucilia cuprina larvae was found to be 100%; in the series with adult Musca domestica (100 ppm), 80%. In addition, the logP in series [2] is listed as 5.1**. Moreover, the “activity (spider mites killed)” value in series [3] (100 g/ha) stood at 100%.
`FC(F)(F)c1nn(-c2ncccn2)c(NCc2ccccc2)c1-c1cc(Cl)c2c(c1)OCO2` [compound (XXI), reference compound]: in series [3] (20 g/ha), the “activity (spider mites killed)” value is listed as 0%. Besides, in series [4] (20 g/ha), the “activity (caterpillars killed)” value turned out to be 0%.
Consider `COc1ccc(CNc2c(-c3cc(Cl)cc(C(F)(F)F)c3)c(C(F)(F)F)nn2-c2ncccn2)cc1` [compound (XXII), reference compound], for which the “activity (beetle larvae killed)” value in [1] (100 g/ha) is on record as “no activity”. The “activity (spider mites killed)” value in series [3] (100 g/ha) was “no activity”. The “activity (caterpillars killed)” value in series [4] (100 g/ha) is “no activity”.
